Patent US20250346585A1 (Alexion Pharmaceuticals, Inc., priority 2022, published 2025)

These molecules were tested against Human complement C1s enzyme (Homo sapiens (Human), UniProt P09871) (assay: Human C1s enzyme assay). Conditions: Human C1s enzyme assay of Example 3; read-out: IC50 (Stars).
Format: biochemical
How it was run: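 IC50 derived by nonlinear regression of rate versus concentration, with rate taken from A405 kinetics (30 s intervals, 30 min) after adding 100 μM each Z-L-Lys-SBzl and DTNB. C1s from human serum, 1.16 nM, exposed to compound for 5 min at RT beforehand; buffer 50 mM Tris, 1 M NaCl, pH 7.5.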

Sequence of Human complement C1s enzyme (P09871 438-688 limits assumed): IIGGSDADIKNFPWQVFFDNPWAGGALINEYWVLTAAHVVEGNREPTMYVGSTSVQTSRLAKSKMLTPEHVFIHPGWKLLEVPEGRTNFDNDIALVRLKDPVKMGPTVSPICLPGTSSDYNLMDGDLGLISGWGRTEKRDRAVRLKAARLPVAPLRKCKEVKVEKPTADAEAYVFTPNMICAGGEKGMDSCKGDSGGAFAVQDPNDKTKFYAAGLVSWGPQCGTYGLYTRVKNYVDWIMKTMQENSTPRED
Sequence of Human complement C1s enzyme (P09871 16-437 partner limits assumed): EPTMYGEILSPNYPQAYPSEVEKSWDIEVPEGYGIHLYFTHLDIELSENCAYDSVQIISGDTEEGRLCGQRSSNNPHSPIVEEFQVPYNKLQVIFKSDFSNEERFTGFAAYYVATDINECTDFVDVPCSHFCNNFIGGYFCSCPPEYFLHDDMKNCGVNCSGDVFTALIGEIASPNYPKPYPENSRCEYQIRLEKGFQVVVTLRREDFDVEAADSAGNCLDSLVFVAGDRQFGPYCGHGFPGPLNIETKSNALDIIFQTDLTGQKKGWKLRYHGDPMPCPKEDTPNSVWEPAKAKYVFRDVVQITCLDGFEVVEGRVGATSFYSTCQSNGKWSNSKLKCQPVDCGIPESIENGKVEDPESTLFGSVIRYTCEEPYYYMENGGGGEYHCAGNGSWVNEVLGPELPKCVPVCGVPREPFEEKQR

Row | SMILES | IC50 [nM]
1 | COC[C@@H]1C[C@@H](C(=O)N[C@H](C)c2cc(C(=N)N)cs2)N(C(=O)CNC(=O)c2ccc(Oc3ccc(F)cc3)cc2)C1 (relative stereo) [Compound 79, (2S,4R*)—N—((R)-1-(4-carbamimidoylthiophen-2-yl)ethyl)-1-((4-(4-fluorophenoxy)benzoyl)glycyl)-4-(methoxymethyl)pyrrolidine-2-carboxamide] | < 100
2 | C[C@@H](NC(=O)[C@@H]1C[C@H](c2nccs2)CN1C(=O)CNC(=O)c1ccc(Oc2ccc(F)cc2)cc1)c1cc(C(=N)N)cs1 [Compound 171, (2S,4S)—N—((R)-1-(4-carbamimidoylthiophen-2-yl)ethyl)-1-((4-(4-fluorophenoxy)benzoyl)glycyl)-4-(thiazol-2-yl)pyrrolidine-2-carboxamide] | < 100
3 | C[C@@H](NC(=O)[C@@H]1C[C@@H](c2ccccc2)CN1C(=O)CNC(=O)c1ccc2c(c1)-c1ccccc1C2(F)F)c1cc(C(=N)N)cs1 [Compound 81, (2S,4S)—N—((R)-1-(4-carbamimidoylthiophen-2-yl)ethyl)-1-((9,9-difluoro-9H-fluorene-3-carbonyl)glycyl)-4-phenylpyrrolidine-2-carboxamide] | < 100
4 | C[C@@H](NC(=O)[C@@H]1CC2(CN1C(=O)CNC(=O)c1ccc(C(F)(F)c3ccccc3)cc1)OCCO2)c1cc(C(=N)N)cs1 [Compound 82, (S)—N—((R)-1-(4-carbamimidoylthiophen-2-yl)ethyl)-7-((4-(difluoro(phenyl)methyl)benzoyl)glycyl)-1,4-dioxa-7-azaspiro[4.4]nonane-8-carboxamide] | < 100
5 | Cc1ccc(Oc2ccc(C(=O)NCC(=O)N3[C@H]4C[C@@]4(C)C[C@H]3C(=O)N[C@H](C)c3cc(C(=N)N)cs3)cc2)cc1 [Compound 7, (1S,3S,5S)—N—((R)-1-(4-carbamimidoylthiophen-2-yl)ethyl)-5-methyl-2-((4-(p-tolyloxy)benzoyl)glycyl)-2-azabicyclo[3.1.0]hexane-3-carboxamide] | < 100
6 | CO[C@@H]1C[C@@H](C(=O)NCc2cc(-c3c[nH]c([N+](=O)[O-])n3)cs2)N(C(=O)CNC(=O)c2ccc(Oc3ccc(F)cc3)cc2)C1 [Compound 156, (2S,4R)-1-((4-(4-fluorophenoxy)benzoyl)glycyl)-4-methoxy-N-((4-(2-nitro-1H-imidazol-4-yl)thiophen-2-yl)methyl)pyrrolidine-2-carboxamide] | > 1000
7 | N=C(N)c1csc(CNC(=O)[C@@H]2CC3(CN2C(=O)CNC(=O)c2ccc(-c4c(F)cccc4F)cc2)OCCO3)c1 [Compound 196, (S)—N-((4-carbamimidoylthiophen-2-yl)methyl)-7-((2′,6′-difluoro-[1,1′-biphenyl]-4-carbonyl)glycyl)-1,4-dioxa-7-azaspiro[4.4]nonane-8-carboxamide] | < 100
8 | Nc1ncc(-c2csc(CNC(=O)[C@@H]3CC4(CN3C(=O)CNC(=O)c3ccc(Oc5ccc(F)cc5)cc3)OCCO4)c2)s1 [Compound 187, (S)—N-((4-(2-aminothiazol-5-yl)thiophen-2-yl)methyl)-7-((4-(4-fluorophenoxy)benzoyl)glycyl)-1,4-dioxa-7-azaspiro[4.4]nonane-8-carboxamide] | > 1000
9 | C[C@@H](NC(=O)[C@@H]1CC2(CN1C(=O)CNC(=O)c1ccc3c(c1)-c1ccccc1C3(F)F)OCCO2)c1cc(-c2nnc[nH]2)cs1 [Compound 130, (S)—N—((R)-1-(4-(4H-1,2,4-triazol-3-yl)thiophen-2-yl)ethyl)-7-((9,9-difluoro-9H-fluorene-3-carbonyl)glycyl)-1,4-dioxa-7-azaspiro[4.4]nonane-8-carboxamide] | 100 to 1000

Same assay, conditions: Human complement C1s enzyme 1.16 nM, substrate Z-L-Lys-SBzl 100 μM, assay of Example 3; read-out: IC50 (Stars)

Row | SMILES | IC50 [nM]
10 | COC[C@@]1(F)C[C@@H](C(=O)N[C@H](C)c2cc(C(=N)N)cs2)N(C(=O)CNC(=O)c2ccc3c(c2)C(C)c2ccccc2-3)C1 (stereo partly drawn) [Compound 363, (2S,4R)—N—((R)-1-(4-carbamimidoylthiophen-2-yl)ethyl)-4-fluoro-4-(methoxymethyl)-1-((9-methyl-9H-fluorene-2-carbonyl)glycyl)pyrrolidine-2-carboxamide] | < 100
11 | Cc1cc2c(cc1C(=O)NCC(=O)N1CC3(C[C@H]1C(=O)N[C@H](C)c1cc(C(=N)N)cs1)OCCO3)-c1ccccc1C2(F)F [Compound 237, (S)—N—((R)-1-(4-carbamimidoylthiophen-2-yl)ethyl)-7-((9,9-difluoro-2-methyl-9H-fluorene-3-carbonyl)glycyl)-1,4-dioxa-7-azaspiro[4.4]nonane-8-carboxamide] | < 100
12 | C[C@@H](NC(=O)[C@@H]1C[C@@H](F)CN1C(=O)CNC(=O)c1ccc2c(c1)-c1ccccc1C2(F)F)c1cc(C(=N)N)cs1 [Compound 202, (2S,4R)—N—((R)-1-(4-carbamimidoylthiophen-2-yl)ethyl)-1-((9,9-difluoro-9H-fluorene-3-carbonyl)glycyl)-4-fluoropyrrolidine-2-carboxamide] | < 100
13 | C[C@@H](NC(=O)[C@@H]1C[C@@H](c2ccccc2)CN1C(=O)CNC(=O)c1ccc2oc3ccccc3c2c1)c1cc(C(=N)N)cs1 [Compound 218, (2S,4S)—N—((R)-1-(4-carbamimidoylthiophen-2-yl)ethyl)-1-((dibenzo[b,d]furan-2-carbonyl)glycyl)-4-phenylpyrrolidine-2-carboxamide] | < 100
14 | C[C@@H](NC(=O)[C@@H]1C[C@H](C(F)(F)F)CN1C(=O)CNC(=O)c1ccc2c(c1)-c1ccccc1C2(F)F)c1cc(C(=N)N)cs1 [Compound 322, (2S,4S)—N—((R)-1-(4-carbamimidoylthiophen-2-yl)ethyl)-1-((9,9-difluoro-9H-fluorene-3-carbonyl)glycyl)-4-(trifluoromethyl)pyrrolidine-2-carboxamide] | < 100
15 | N=C(N)c1csc([C@@H](CO)NC(=O)[C@@H]2CC3(CN2C(=O)CNC(=O)c2ccc4c(c2)-c2ccccc2C4(F)F)OCCO3)c1 [Compound 376, (S)—N—((R)-1-(4-carbamimidoylthiophen-2-yl)-2-hydroxyethyl)-7-((9,9-difluoro-9H-fluorene-3-carbonyl)glycyl)-1,4-dioxa-7-azaspiro [4.4]nonane-8-carboxamide] | < 100
16 | C[C@@H](NC(=O)[C@@H]1C[C@@H](S(C)(=O)=O)CN1C(=O)CNC(=O)c1ccc2c(c1)Oc1ccccc1S2)c1cc(C(=N)N)cs1 [Compound 333, (2S,4R)—N—((R)-1-(4-carbamimidoylthiophen-2-yl)ethyl)-4-(methylsulfonyl)-1-((phenoxathiine-3-carbonyl)glycyl)pyrrolidine-2-carboxamide] | < 100
17 | C[C@@H](NC(=O)[C@@H]1C[C@@H](S(C)(=O)=O)CN1C(=O)CNC(=O)c1ccc2c(c1)oc1ccccc12)c1cc(C(=N)N)cs1 [Compound 379, (2S,4R)—N—((R)-1-(4-carbamimidoylthiophen-2-yl)ethyl)-1-((dibenzo[b,d]furan-3-carbonyl)glycyl)-4-(methylsulfonyl)pyrrolidine-2-carboxamide] | < 100
18 | O=C(NCC(=O)N1CC2(C[C@H]1C(=O)NCc1cc(NC3=NCCS3)cs1)OCCO2)c1ccc(Oc2ccc(F)cc2)cc1 [Compound 284, (S)-N-((4-((4,5-dihydrothiazol-2-yl)amino)thiophen-2-yl)methyl)-7-((4-(4-fluorophenoxy)benzoyl)glycyl)-1,4-dioxa-7-azaspiro[4.4]nonane-8-carboxamide] | > 1000
19 | N=C(N)c1csc(CNC(=O)[C@@H]2CC3(CN2C(=O)CN2CCc4cc(-c5ccccc5)ccc4C2=O)OCCO3)c1 [Compound 256, (S)—N-((4-carbamimidoylthiophen-2-yl)methyl)-7-(2-(1-oxo-6-phenyl-3,4-dihydroisoquinolin-2(1H)-yl)acetyl)-1,4-dioxa-7-azaspiro[4.4]nonane-8-carboxamide] | < 100
20 | C[C@@H](NC(=O)[C@@H]1C[C@@H](OC(F)F)CN1C(=O)CNC(=O)c1ccc2oc3ccccc3c2c1)c1cc(C(=N)N)cs1 [Compound 205, (2S,4R)—N—((R)-1-(4-carbamimidoylthiophen-2-yl)ethyl)-1-((dibenzo[b,d]furan-2-carbonyl)glycyl)-4-(difluoromethoxy)pyrrolidine-2-carboxamide] | < 100
21 | C[C@@H](NC(=O)[C@@H]1C[C@H](c2ccccn2)CN1C(=O)CNC(=O)c1ccc2c(c1)-c1ccccc1C2(F)F)c1cc(C(=N)N)cs1 [Compound 358, (2S,4S)—N—((R)-1-(4-carbamimidoylthiophen-2-yl)ethyl)-1-((9,9-difluoro-9H-fluorene-3-carbonyl)glycyl)-4-(pyridin-2-yl)pyrrolidine-2-carboxamide] | < 100
22 | COC[C@@]1(F)C[C@@H](C(=O)N[C@H](C)c2cc(C(=N)N)cs2)N(C(=O)CNC(=O)c2ccc3c(c2)-c2ccccc2S3(=O)=O)C1 [Compound 393, (2S,4R)—N—((R)-1-(4-carbamimidoylthiophen-2-yl)ethyl)-1-((5,5-dioxidodibenzo[b,d]thiophene-2-carbonyl)glycyl)-4-fluoro-4-(methoxymethyl) pyrrolidine-2-carboxamide] | < 100
23 | C[C@@H](NC(=O)[C@@H]1C[C@@H](Oc2ccccc2)CN1C(=O)CNC(=O)c1ccc2oc3ccccc3c2c1)c1cc(C(=N)N)cs1 [Compound 248, (2S,4R)—N—((R)-1-(4-carbamimidoylthiophen-2-yl)ethyl)-1-((dibenzo[b,d]furan-2-carbonyl)glycyl)-4-phenoxypyrrolidine-2-carboxamide] | < 100
24 | C[C@@H](NC(=O)[C@@H]1C[C@@H](S(C)(=O)=O)CN1C(=O)CNC(=O)c1ccc2c(c1)-c1ccccc1S2(=O)=O)c1cc(C(=N)N)cs1 [Compound 342, (2S,4R)—N—((R)-1-(4-carbamimidoylthiophen-2-yl)ethyl)-1-((5,5-dioxidodibenzo[b,d]thiophene-2-carbonyl)glycyl)-4-(methylsulfonyl) pyrrolidine-2-carboxamide] | < 100
